According to PMC3109749 (ACS medicinal chemistry letters, 2011):

How the values were obtained:
[1] = test system: serine hydrolase superfamily (FAAH and other FP-reactive serine hydrolases); format: biochemical, mouse; settings: for off targets in mouse membrane proteome (ABPP): brain membrane proteome, 10 and 100 μM
[2] = molecular target: T1, serine hydrolase superfamily (FAAH and other FP-reactive serine hydrolases) (Mus musculus, UniProt O08914); format: biochemical; settings: brain membrane proteome; at both 10 and 100 μM
T1 sequence (O08914 1-579): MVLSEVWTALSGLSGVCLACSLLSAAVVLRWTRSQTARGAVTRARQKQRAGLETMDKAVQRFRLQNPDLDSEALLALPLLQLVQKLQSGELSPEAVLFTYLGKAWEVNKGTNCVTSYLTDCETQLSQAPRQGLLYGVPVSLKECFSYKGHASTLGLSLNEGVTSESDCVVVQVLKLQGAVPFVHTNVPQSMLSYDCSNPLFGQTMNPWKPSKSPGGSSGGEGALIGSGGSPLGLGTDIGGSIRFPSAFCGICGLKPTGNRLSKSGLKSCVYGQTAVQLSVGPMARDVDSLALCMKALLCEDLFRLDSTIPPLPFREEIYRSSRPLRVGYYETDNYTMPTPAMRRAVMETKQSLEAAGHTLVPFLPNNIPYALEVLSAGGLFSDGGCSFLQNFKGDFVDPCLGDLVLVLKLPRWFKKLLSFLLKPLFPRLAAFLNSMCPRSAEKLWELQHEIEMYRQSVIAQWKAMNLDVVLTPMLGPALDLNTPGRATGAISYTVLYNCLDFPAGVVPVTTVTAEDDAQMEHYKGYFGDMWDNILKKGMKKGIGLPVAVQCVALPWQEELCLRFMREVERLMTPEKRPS

[3] = molecular target: T2, serine hydrolase superfamily (FAAH and other FP-reactive serine hydrolases) (Homo sapiens, UniProt O00519); format: biochemical; settings: brain membrane proteome; at both 10 and 100 μM
T2 sequence (O00519 1-579): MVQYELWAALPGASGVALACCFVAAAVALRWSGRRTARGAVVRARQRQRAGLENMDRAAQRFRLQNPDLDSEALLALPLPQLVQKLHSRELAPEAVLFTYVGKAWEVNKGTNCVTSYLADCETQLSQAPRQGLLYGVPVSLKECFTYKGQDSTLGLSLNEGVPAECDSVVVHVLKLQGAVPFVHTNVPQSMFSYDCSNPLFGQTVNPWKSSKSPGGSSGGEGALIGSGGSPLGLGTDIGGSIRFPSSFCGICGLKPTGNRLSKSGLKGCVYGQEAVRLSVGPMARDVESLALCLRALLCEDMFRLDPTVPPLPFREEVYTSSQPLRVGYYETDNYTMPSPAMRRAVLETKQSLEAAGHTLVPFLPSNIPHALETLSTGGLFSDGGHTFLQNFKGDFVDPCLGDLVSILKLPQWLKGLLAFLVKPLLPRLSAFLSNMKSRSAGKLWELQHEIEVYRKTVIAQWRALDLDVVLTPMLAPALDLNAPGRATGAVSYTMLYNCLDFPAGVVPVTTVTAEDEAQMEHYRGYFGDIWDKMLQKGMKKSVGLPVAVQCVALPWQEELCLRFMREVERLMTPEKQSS

[4] = test system: serine hydrolase superfamily (FAAH and other FP-reactive serine hydrolases); format: biochemical, human; settings: for off targets in human membrane proteome (ABPP): brain membrane proteome, 10 and 100 μM
[5] = test system: rat model of inflammatory pain (CFA); settings: not shown in this paper's figure; cited from earlier work
[6] = molecular target: T3, rat FAAH (rFAAH) (Rattus norvegicus, UniProt P97612); assay: enzyme-coupled rat FAAH assay, kinact/Ki; format: biochemical
T3 sequence (P97612 1-579): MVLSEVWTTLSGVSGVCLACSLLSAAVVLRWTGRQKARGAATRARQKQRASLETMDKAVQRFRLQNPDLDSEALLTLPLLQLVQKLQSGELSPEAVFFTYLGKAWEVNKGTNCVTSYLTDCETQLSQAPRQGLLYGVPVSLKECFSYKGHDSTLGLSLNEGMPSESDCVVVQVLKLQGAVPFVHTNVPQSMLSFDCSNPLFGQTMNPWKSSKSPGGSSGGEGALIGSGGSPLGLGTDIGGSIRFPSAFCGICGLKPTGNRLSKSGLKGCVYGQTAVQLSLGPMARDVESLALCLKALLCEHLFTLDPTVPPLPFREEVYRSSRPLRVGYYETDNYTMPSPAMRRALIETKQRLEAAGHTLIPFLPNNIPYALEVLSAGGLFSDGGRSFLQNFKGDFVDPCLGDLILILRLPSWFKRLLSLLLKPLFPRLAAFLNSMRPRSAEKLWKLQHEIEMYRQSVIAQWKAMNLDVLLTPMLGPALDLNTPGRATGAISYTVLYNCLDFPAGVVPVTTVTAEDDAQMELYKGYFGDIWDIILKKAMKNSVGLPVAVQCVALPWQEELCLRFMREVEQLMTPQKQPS

[7] = molecular target: T4, human FAAH (hFAAH) (Homo sapiens, UniProt O00519); assay: enzyme-coupled human FAAH assay, kinact/Ki; format: biochemical
T4 sequence (O00519 32-579 limits assumed): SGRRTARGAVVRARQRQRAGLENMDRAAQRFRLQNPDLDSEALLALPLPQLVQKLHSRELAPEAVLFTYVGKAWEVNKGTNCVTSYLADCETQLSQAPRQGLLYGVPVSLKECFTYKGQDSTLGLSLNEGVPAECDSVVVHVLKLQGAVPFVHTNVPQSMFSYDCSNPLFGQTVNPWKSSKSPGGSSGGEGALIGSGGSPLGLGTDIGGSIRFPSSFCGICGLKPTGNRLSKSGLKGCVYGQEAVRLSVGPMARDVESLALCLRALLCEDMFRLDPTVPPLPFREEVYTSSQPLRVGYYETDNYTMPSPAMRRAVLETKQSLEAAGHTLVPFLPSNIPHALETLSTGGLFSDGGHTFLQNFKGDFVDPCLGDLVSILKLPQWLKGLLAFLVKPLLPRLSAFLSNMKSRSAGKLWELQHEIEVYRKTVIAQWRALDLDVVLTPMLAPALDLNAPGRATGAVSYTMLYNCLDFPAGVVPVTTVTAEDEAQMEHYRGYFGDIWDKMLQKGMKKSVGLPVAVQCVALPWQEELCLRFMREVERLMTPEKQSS

[8] = molecular target: T5, FAAH (Rattus norvegicus, UniProt P97612); assay: in vivo FAAH activity accompanying efficacy; settings: at efficacious doses starting at 0.1 mg/kg; with elevations in anandamide and other fatty acid amides in brain and plasma
T5 sequence (P97612 1-579): T3 sequence (P97612 1-579)

[9] = human liver microsomal stability and binding; format: in vitro ADME; settings: predicted from in vitro experiments
[10] = soluble proteome of liver, up to 100 μM

Structure (SMILES): NC(=O)c1cccc(-c2cccc(OC(=O)NC3CCCCC3)c2)c1 [Compound 2]
- off targets in mouse membrane proteome (ABPP) [1]: no off targets
- off targets among serine hydrolases in mouse soluble liver proteome (ABPP) [1, 10]: multiple off targets
- inhibition of FAAH in mouse membrane proteome (ABPP) [2]: completely inhibited FAAH
- inhibition of FAAH in human membrane proteome (ABPP) [3]: completely inhibited FAAH
- off targets in human membrane proteome (ABPP) [4]: no off targets
- off targets among serine hydrolases in human soluble liver proteome (ABPP) [4, 10]: multiple off targets

Structure (SMILES): O=C(Nc1cccnc1)N1CCC(Cc2cccc(Oc3ccc(C(F)(F)F)cn3)c2)CC1 [Compound 7]
- minimum effective dose (MED), mechanical allodynia [5]: 3 mg/kg

Structure (SMILES): O=C(Nc1cccnc1)N1CCC(=Cc2cccc(Oc3ccc(C(F)(F)F)cn3)c2)CC1 [Compound 11]
- fold more potent (higher kinact/Ki) than 7 for rFAAH ([6]; compared to PF-3845 (7)): ~4 fold
- fold more potent (higher kinact/Ki) than 7 for hFAAH ([7]; compared to PF-3845 (7)): approximately 2 fold

Structure (SMILES): O=C(Nc1cccnc1)N1CCC/C(=C\c2cccc(Oc3ccc(C(F)(F)F)cn3)c2)C1 [Compound 16]
- fold less potent than 11 for hFAAH ([7]; compared to 11): approximately 19 fold

Structure (SMILES): O=C(Nc1cccnc1)N1CCC/C(=C/c2cccc(Oc3ccc(C(F)(F)F)cn3)c2)C1 [Compound 17]
- FAAH potency in words ([7]; relative to the parent analogue (9 vs 4, 10 vs 5, 12-17 vs 11)): activity was almost completely abolished

Structure (SMILES): O=C(Nc1cnccn1)N1CCC(=Cc2cccc(Oc3ccc(C(F)(F)F)cn3)c2)CC1 [Compound 22]
- fold higher kinact/Ki value for hFAAH as compared to 11 ([7]; compared to 11): 2 fold

Structure (SMILES): O=C(Nc1cccnn1)N1CCC(=Cc2cccc(Oc3ccc(C(F)(F)F)cn3)c2)CC1 [Compound 23]
- inhibition of FAAH activity in vivo [8]: near complete inhibition of FAAH activity
- off targets in mouse membrane proteome (ABPP) [1]: no off targets
- inhibition of FAAH in mouse membrane proteome (ABPP) [2]: completely inhibited FAAH
- inhibition of FAAH in human membrane proteome (ABPP) [3]: completely inhibited FAAH
- off targets in human membrane proteome (ABPP) [4]: no off targets
- predicted human blood clearance [9]: 0.6 mL/min/kg

Structure (SMILES): Cc1noc(NC(=O)N2CCC(=Cc3cccc(Oc4ccc(C(F)(F)F)cn4)c3)CC2)c1C [Compound 24]
- fold more potent for rFAAH as compared to 23 ([6]; compared to 23): 2 fold
- fold less potent for hFAAH as compared to 23 [7]: 5 fold

Structure (SMILES): O=C(Nc1cccnn1)N1CCC(=Cc2cccc(Oc3ccc(C(F)(F)F)cc3)c2)CC1 [Compound 26]
- fold less potent for hFAAH as compared to 23 [7]: 2 fold

Structure (SMILES): O=C(Nc1cccnn1)N1CCC(=Cc2cccc(Oc3ccccc3)c2)CC1 [Compound 27]
- additional fold loss in potency on removal of the trifluoromethyl substituent ([7]; compared to 26): 10 fold

Structure (SMILES): O=C(Nc1cccnn1)N1CCC(=Cc2cccc(Oc3ccc(C(F)(F)F)nc3)c2)CC1 [Compound 28]
- fold less potent for hFAAH as compared to 23 [7]: ≤ 2 fold
